#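 Cultured in 96-well plates, cells were exposed to test compound for 48 hours across five concentrations. GI50 marks 50% less growth. TGI: concentration producing complete growth inhibition.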
# How the values were obtained:
# Experiment in all cases: DTP human tumour cell line panel, 48 h
# [1] = tested on: SNB-75 CNS
# [2] = tested on: RPMI-8226 leukemia
# [3] = tested on: LOX IMVI melanoma
# [4] = tested on: HCC-2998 colon
# [5] = tested on: COLO 205 colon
# [6] = tested on: MDA-MB-435
# [7] = tested on: MOLT-4 leukemia
# [8] = tested on: SW-620 colon
# [9] = tested on: CAKI-1 renal
# [10] = tested on: NCI-H226 lung
# [11] = tested on: HS 578T breast
# [12] = tested on: A549 NSCLC
# [13] = tested on: M14 melanoma
# [14] = tested on: HOP-62 NSCLC
# [15] = tested on: T-47D breast
# [16] = tested on: NCI-H522 lung
# [17] = tested on: EKVX NSCLC
# [18] = tested on: RXF 393 renal
# [19] = tested on: UACC-62 melanoma
# [20] = tested on: ACHN renal
# [21] = tested on: SF-539 CNS
# [22] = tested on: MCF7 breast
# [23] = tested on: NCI/ADR-RES ovarian
# [24] = tested on: SN12C renal
# [25] = tested on: SF-268 CNS
# [26] = tested on: HCT-116 colon
# [27] = tested on: OVCAR-8 ovarian
# [28] = tested on: SK-MEL-28 melanoma
# [29] = tested on: DU-145 prostate
# [30] = tested on: HCT-15 colon
# [31] = tested on: 786-0 renal
# [32] = tested on: MDA-MB-231 breast
# [33] = tested on: A498 renal
# [34] = tested on: BT-549 breast
# [35] = tested on: TK-10 renal
# [36] = tested on: UO-31 renal
# [37] = tested on: NCI-H460 lung
# [38] = tested on: CCRF-CEM leukemia
# [39] = tested on: SR leukemia
# [40] = tested on: IGROV1 ovarian
# [41] = tested on: UACC-257 melanoma
# [42] = tested on: OVCAR-4 ovarian
# [43] = tested on: MALME-3M melanoma
# [44] = tested on: K-562 leukemia
# [45] = tested on: OVCAR-3 ovarian
# [46] = tested on: SK-MEL-2 melanoma
# [47] = tested on: SF-295 CNS
# [48] = tested on: NCI-H23 lung
# [49] = tested on: SNB-19 CNS
# [50] = tested on: PC-3 prostate
# [51] = tested on: KM12 colon
# [52] = tested on: U251 CNS
# [53] = tested on: HL-60(TB) leukemia
# [54] = tested on: HOP-92 NSCLC
# [55] = tested on: OVCAR-5 ovarian
# [56] = tested on: HT29 colon
# [57] = tested on: SK-OV-3 ovarian
# [58] = tested on: SK-MEL-5 melanoma
smiles,measurement,setting,value
c1ccc(-c2c(-c3ccccc3)[n+](Cc3ccc4ccccc4c3)c(-c3cccc4ccccc34)n2Cc2ccc3ccccc3c2)cc1,GI50,[1],192 nM
same,TGI,[1],955 nM
same,GI50,[2],32.6 nM
same,TGI,[2],295 nM
same,GI50,[3],150 nM
same,TGI,[3],496 nM
same,GI50,[4],131 nM
same,TGI,[4],1500 nM
same,GI50,[5],76.5 nM
same,TGI,[5],228 nM
same,GI50,[6],284 nM
same,TGI,[6],1180 nM
same,GI50,[7],233 nM
same,TGI,[7],1270 nM
same,GI50,[8],151 nM
same,TGI,[8],1330 nM
same,GI50,[9],265 nM
same,TGI,[9],1010 nM
same,GI50,[10],203 nM
same,TGI,[10],828 nM
same,GI50,[11],302 nM
same,TGI,[11],2200 nM
same,GI50,[12],166 nM
same,TGI,[12],1570 nM
same,GI50,[13],187 nM
same,TGI,[13],1440 nM
same,GI50,[14],301 nM
same,TGI,[14],1780 nM
same,GI50,[15],64.8 nM
same,TGI,[15],1270 nM
same,GI50,[16],253 nM
same,TGI,[16],978 nM
same,GI50,[17],187 nM
same,TGI,[17],1430 nM
same,GI50,[18],220 nM
same,TGI,[18],949 nM
same,GI50,[19],286 nM
same,TGI,[19],1400 nM
same,GI50,[20],249 nM
same,TGI,[20],743 nM
same,GI50,[21],371 nM
same,TGI,[21],1500 nM
same,GI50,[22],169 nM
same,TGI,[22],1070 nM
same,GI50,[23],1300 nM
same,TGI,[23],2940 nM
same,GI50,[24],127 nM
same,TGI,[24],1140 nM
same,GI50,[25],220 nM
same,TGI,[25],1760 nM
same,GI50,[26],92.7 nM
same,TGI,[26],1250 nM
same,GI50,[27],153 nM
same,TGI,[27],1540 nM
same,GI50,[28],191 nM
same,TGI,[28],1880 nM
same,GI50,[29],262 nM
same,TGI,[29],1440 nM
same,GI50,[30],327 nM
same,TGI,[30],1210 nM
same,GI50,[31],231 nM
same,TGI,[31],1630 nM
same,GI50,[32],220 nM
same,TGI,[32],1000 nM
same,GI50,[33],< 47.1 nM
same,TGI,[33],398 nM
same,GI50,[34],122 nM
same,TGI,[34],1180 nM
same,GI50,[35],239 nM
same,TGI,[35],1530 nM
same,GI50,[36],306 nM
same,TGI,[36],1280 nM
same,GI50,[37],154 nM
same,TGI,[37],1140 nM
same,GI50,[38],128 nM
same,TGI,[38],1660 nM
same,GI50,[39],192 nM
same,TGI,[39],1530 nM
same,GI50,[40],147 nM
same,TGI,[40],1390 nM
same,GI50,[41],221 nM
same,TGI,[41],958 nM
same,GI50,[42],187 nM
same,TGI,[42],1120 nM
same,GI50,[43],91 nM
same,TGI,[43],1000 nM
same,GI50,[44],45.1 nM
same,TGI,[44],> 100000 nM
same,GI50,[45],94.5 nM
same,TGI,[45],1280 nM
same,GI50,[46],140 nM
same,TGI,[46],758 nM
same,GI50,[47],90.6 nM
same,TGI,[47],458 nM
same,GI50,[48],146 nM
same,TGI,[48],748 nM
same,GI50,[49],108 nM
same,TGI,[49],1420 nM
same,GI50,[50],64.1 nM
same,TGI,[50],1210 nM
same,GI50,[51],98.7 nM
same,TGI,[51],758 nM
same,GI50,[52],74.7 nM
same,TGI,[52],1460 nM
same,GI50,[53],34.2 nM
same,TGI,[53],228 nM
same,GI50,[54],79.1 nM
same,TGI,[54],479 nM
same,GI50,[55],321 nM
same,TGI,[55],1350 nM
same,GI50,[56],46.6 nM
same,TGI,[56],1100 nM
same,GI50,[57],207 nM
same,TGI,[57],973 nM
same,GI50,[58],155 nM
same,TGI,[58],296 nM

# Reference: PubChem BioAssay (NCI)
